Results: paper PMC3273469, “BACE1 Inhibition Induces a Specific Cerebrospinal Fluid β-Amyloid Pattern That Identifies Drug Effects in the Central Nervous System” (PLoS ONE, 2012)

Target: BACE1 (Homo sapiens, UniProt P56817)
Assay: Cellular Aβ[…] secretion ELISA (SH-SY5Y APP695wt cells); IP-MS Aβ pattern
Format: cell-based

Sequence of BACE1 (P56817 46-501): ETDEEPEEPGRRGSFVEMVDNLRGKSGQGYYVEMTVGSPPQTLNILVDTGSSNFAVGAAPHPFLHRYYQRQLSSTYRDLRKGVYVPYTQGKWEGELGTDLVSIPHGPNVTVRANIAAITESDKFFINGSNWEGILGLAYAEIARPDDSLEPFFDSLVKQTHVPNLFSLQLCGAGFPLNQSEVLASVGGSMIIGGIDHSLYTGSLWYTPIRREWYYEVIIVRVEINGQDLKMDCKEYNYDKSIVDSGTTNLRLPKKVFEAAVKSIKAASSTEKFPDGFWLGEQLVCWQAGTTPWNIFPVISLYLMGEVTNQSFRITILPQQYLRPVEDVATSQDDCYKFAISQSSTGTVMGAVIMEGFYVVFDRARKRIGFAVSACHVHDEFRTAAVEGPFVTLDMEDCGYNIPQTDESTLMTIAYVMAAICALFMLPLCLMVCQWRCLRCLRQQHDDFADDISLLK

AZ-20
IC50: 8.2 ± 1.4 nM
